Residue numbers refer to the chain shown, from its start. pEC50: −log10 of the molar value. In brackets after ≈: the same amount, converted by molar mass. Counter-ions that a name gives are not always drawn. Like-named read-outs stand apart in the source and are kept apart here.
Assays:
[1] = Photostability protocol (UV exposure, ICH Q1B, SUNTEST, HPLC); assay type: physicochemical; details: after 17 h exposure to UV light; for Elafibranor degradation (%): HPLC-UV at 350 nm
Method: In order to make the difference between the degradation only due to temperature within the SUNTEST apparatus chamber and the degradation only due to UV exposure, a second elafibranor salt sample protected from light is also placed in the SUNTEST chamber. All samples are then analyzed by HPLC.
The crystallized samples were stressed by exposure to UV light according to the photostatbility protocol described above.

[2] = molecular target: T1, PPARalpha (Homo sapiens, UniProt Q07869); assay: Gal4-PPAR transactivation assay in COS-7 cells, human PPARalpha; assay type: cell-based
T1 sequence (Q07869 200-468 limits assumed): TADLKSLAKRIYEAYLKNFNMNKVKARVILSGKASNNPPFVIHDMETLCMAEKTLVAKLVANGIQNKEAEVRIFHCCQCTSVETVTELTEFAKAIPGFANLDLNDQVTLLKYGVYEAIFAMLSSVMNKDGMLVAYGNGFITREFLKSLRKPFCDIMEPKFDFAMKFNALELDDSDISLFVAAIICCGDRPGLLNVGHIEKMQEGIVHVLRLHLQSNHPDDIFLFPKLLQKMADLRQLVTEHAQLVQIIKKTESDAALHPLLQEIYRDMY
Method: (§1) Monkey kidney COS-7 cells were maintained in standard culture conditions (Dulbecco's modified Eagle's minimal medium: DMEM) supplemented with 10% fetal calf serum, 1% sodium pyruvate, 1% essential amino acids, 1% L-glutamine and 1% antibiotics at 37° C. in a humidified atmosphere of 5% CO2 and 95% air. The medium was changed every 2 days. All tested compounds were dissolved in DMSO. Cells were transfected using 4 μl JetPEI™ (Polyplus transfection)/μg of DNA. Briefly, 150 ng of DNA per well was transfected in a 96 well culture plate of adherent COS-7 cells (respecting the 10:1 ratio between the Gal4(RE)_TkpGL3 plasmid and the plasmid coding the nuclear receptor of interest (pGal4-hPPARalpha, pGal4-hPPARgamma, pGal4-hPPARdelta, pGal4-mPPARalpha, pGal4-mPPARgamma and pGal4-mPPARdelta) or of the pGal4phi plasmid (negative control). Cells were enzymatically detached and seeded in 96 well plates at the density of 40,000 cells per well and then incubated for 24 hours at 37° C. The activation was performed in DMEM 0% fetal calf serum, supplemented with the tested compounds (compound of interest or reference molecules) or vehicle (DMSO 0.1%). The luciferase activity was measured with the Steady-Glo Luciferase Assay System (Promega, Madison, WI). All transactivation experiments were performed at least 2 times. Activation curves were realized using Prism® (from GraphPad) software. Prism® was also used to fit the standard curves and then determine the specific EC50 values, maximum effect versus reference molecules and Hill slope. The Emax effect of each new ligand is represented as the ratio of the maximal induction (plateau) obtained with the new ligand and the induction obtained with the corresponding reference compound. The reference compounds for PPARalpha, PPARgamma and PPARdelta were fenofibrate (100 μM), rosiglitazone (10 μM) and GW501516 (1 μM), respectively.

[3] = molecular target: T2, PPARgamma (Homo sapiens, UniProt P37231); assay: Gal4-PPAR transactivation assay in COS-7 cells, human PPARgamma; assay type: cell-based
T2 sequence (P37231 238-505 limits assumed): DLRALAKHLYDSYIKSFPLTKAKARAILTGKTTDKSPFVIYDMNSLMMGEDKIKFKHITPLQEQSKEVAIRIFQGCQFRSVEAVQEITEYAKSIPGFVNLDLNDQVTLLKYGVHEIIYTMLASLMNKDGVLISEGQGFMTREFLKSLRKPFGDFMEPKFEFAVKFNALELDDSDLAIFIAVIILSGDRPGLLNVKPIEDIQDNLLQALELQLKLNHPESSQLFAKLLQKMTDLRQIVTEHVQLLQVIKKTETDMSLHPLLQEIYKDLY
Method: as §1

[4] = molecular target: T3, PPARalpha (Mus musculus, UniProt P23204); assay: Gal4-PPAR transactivation assay in COS-7 cells, murine PPARalpha; assay type: cell-based; details: Murin
T3 sequence (P23204 200-468 limits assumed): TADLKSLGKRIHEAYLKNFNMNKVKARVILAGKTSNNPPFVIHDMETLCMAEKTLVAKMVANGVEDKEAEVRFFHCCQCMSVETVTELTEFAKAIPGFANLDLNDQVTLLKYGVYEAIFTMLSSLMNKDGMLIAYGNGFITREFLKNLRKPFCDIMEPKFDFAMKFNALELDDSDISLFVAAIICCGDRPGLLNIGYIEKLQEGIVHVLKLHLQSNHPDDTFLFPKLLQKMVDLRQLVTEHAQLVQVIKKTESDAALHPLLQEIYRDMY
Method: as §1

[5] = molecular target: T4, PPARgamma (Mus musculus, UniProt P37238); assay: Gal4-PPAR transactivation assay in COS-7 cells, murine PPARgamma; assay type: cell-based; details: Murin
T4 sequence (P37238 238-505 limits assumed): T2 sequence (P37231 238-505 limits assumed) with S93N, V98I, S146N, L226V, Q245H
Method: as §1

[6] = Solubility assessment in buffered aqueous solution; details: for solubility at 24 h: 20 °C, thermodynamic from solid
Method: The solubility of the compound is determined in buffered aqueous solution at pH 1, pH 3, pH 5 and pH 7.4.
The saturation is obtained by adding an excess of active ingredient to a given volume of test medium. The suspension is stirred by orbital stirring over 24 hours at […], away from light.
After 30 min, 1 hour, 2 hours and/or 24 hours, the supernatant is isolated by centrifugation and diluted in a solvent mixture allowing its injection into the chromatographic system. The concentration (expressed as parent concentration) in solution for each medium is determined by HPLC (external standardization).
After 24 hours an XRPD analysis is performed on the insoluble fraction isolated by centrifugation.
• pH 1 HCl/KCl buffer: a mixture of 0.373 g of KCl and 13.4 ml of HCl in a 100 mL volumetric flask was completed to 100 mL with de-ionized water. • pH 3 citrate buffer: 1.051 g of citric acid monohydrate was dissolved in 250 ml of de-ionized water. The pH was adjusted to 3 with NaOH. • pH 5 citrate/phosphate buffer: Solution I was prepared: 2.8392 g of Na2HPO4 in 100 mL volumetric flask was completed to 100 mL with de-ionized water. Solution II was prepared: 2.1004 g of citric acid monohydrate in a 100 mL volumetric flask was completed to 100 mL with de-ionized water. To 48.5 mL of Solution II were added 51.5 mL of Solution I. • pH 7.4 phosphate buffer: a mixture of 38 g of Na2HPO4, 12H2O and 3.8 g of Na2HPO4, 2H2O in a 1 L volumetric flask was completed to 1 L with de-ionized water. Salt Screening Macroscopic Observation

[7] = listed as Elafibranor L-Arginine salt

Structure (SMILES) | pEC50 [2] | pEC50 [3] | pEC50 [4] | pEC50 [5] | Final pH of the saturated solution ([6]; pH 1 HCl/KCl buffer) | Final pH of the saturated solution ([6]; pH 3 citrate buffer) | Final pH of the saturated solution ([6]; pH 5 citrate/phosphate buffer) | Final pH of the saturated solution ([6]; pH 7.4 phosphate buffer) | Photostability compared to elafibranor free acid [1] | Elafibranor degradation (%) [1] | other results
CSc1ccc(C(=O)/C=C/c2cc(C)c(OC(C)(C)C(=O)O)c(C)c2)cc1 [Form III, Elafibranor sodium salt] | 7.11 | 6.25 | 6.88 | 6.11 |  |  |  |  |  |  | Elafibranor degradation (%) ([1]; sodium salt): 89%
CSc1ccc(C(=O)/C=C/c2cc(C)c(OC(C)(C)C(=O)O)c(C)c2)cc1.NC(CO)(CO)CO [Form I, Elafibranor tromethamine salt] | 7.17 | 6.31 | 6.99 | 6.14 | 0.9 | 3.1 | 5.1 | 7.3 | significant improvement of the photostability | 10% | Soluble fraction (mg/mL) at 20° C. at 24 hours ([6]; pH 1 HCl/KCl buffer): <0.001 mg/mL; Soluble fraction (mg/mL) at 20° C. at 24 hours ([6]; pH 3 citrate buffer): <0.001 mg/mL; Soluble fraction (mg/mL) at 20° C. at 24 hours ([6]; pH 5 citrate/phosphate buffer): 0.003 mg/mL; Solubility compared to elafibranor ([6]; pH 7.4): more soluble than elafibranor; Soluble fraction (mg/mL) at 20° C. at 24 hours ([6]; pH 7.4 phosphate buffer): 0.19 mg/mL
CSc1ccc(C(=O)/C=C/c2cc(C)c(OC(C)(C)C(=O)O)c(C)c2)cc1 [Form II, Elafibranor potassium salt] | 7.19 | 6.37 | 7.02 | 6.23 |  |  |  |  | significant improvement of the photostability |  | Elafibranor degradation (%) ([1]; listed as Potassium salt (Form II), potassium salt): 13%; Elafibranor degradation (%) ([1]; potassium salt): 13%
CSc1ccc(C(=O)/C=C/c2cc(C)c(OC(C)(C)C(=O)O)c(C)c2)cc1 [Elafibranor, reference compound] | 7.24 | 6.37 | 7.02 | 6.24 | 0.7 | 2.9 | 4.9 | 7.3 |  |  | solubility at 24 h ([6]; pH 1, simulated gastric fluid): < 1 µg/mL; solubility at 24 h ([6]; pH 3, aqueous buffer): < 1 µg/mL; solubility at 24 h ([6]; pH 5, aqueous buffer): 1 µg/mL (≈ 2.6 µM); solubility at 24 h ([6]; pH 7.4, aqueous buffer): 130 µg/mL (≈ 338 µM); Elafibranor degradation (%) ([1]; listed as Free acid): 27%; Elafibranor degradation (%) ([1]; listed as elafibranor free acid): 27%
CSc1ccc(C(=O)/C=C/c2cc(C)c(OC(C)(C)C(=O)O)c(C)c2)cc1.N=C(N)NCCC[C@H](N)C(=O)O [Form IV, Elafibranor L-arginate salt] |  |  |  |  |  |  |  |  | significant improvement of the photostability | 4% | pEC50 [2, 7]: 7.27; pEC50 [3, 7]: 6.49; pEC50 [4, 7]: 7.03; pEC50 [5, 7]: 6.24

From patent US12030840B2 (GENFIT, priority 2018, dated 2024)
